Structures can show the parent of a compound that is named as a salt.
Tested on: not given
Settings: not given

| melting point | Compound |
| --- | --- |
| 205 to 210 °C (dec.) | CC(C)Oc1ccc2nc(Nc3ccccc3)cnc2c1.Cl |
| 185 to 190 °C (dec.) | COc1cc2ncc(CNC3CCCCC3)nc2cc1OC (as salt: HCl) [Example 11, Cyclohexyl-(6,7-dimethoxyquinoxalin-2-ylmethyl)-amine] |
| 188 to 189.5 °C | COc1cc2ncc(NC3CCCCC3)nc2cc1OC [Example 3, 2-cyclohexylamino-6,7-dimethoxyquinoxaline] |
| 211 to 213 °C | Oc1ccc2nc(Nc3ccccc3)cnc2c1 [Example 8, 2-Anilino-6-quinoxalinol] |
| 173 to 175 °C | c1ccc(Nc2cnc3cc(O[C@@H]4CCOC4)ccc3n2)cc1 [Example 9, Phenyl-[6-(tetrahydrofuran-3-(R)-yl-oxy)quinoxalin-2-yl]amine] |
| 75 to 78 °C | COc1cc2ncc(OC3CCCCC3)nc2cc1OC1CCCCC1 [Example 10, 2,7-Bis-cyclohexyloxy-6-methoxy-quinoxaline] |
| 170 to 173.5 °C | COc1cc2cc(NCC(C)(C)CO)cnc2cc1OC [Example 13, 3-(6,7-Dimethoxyquinolin-3-yl-amino)-2,2-dimethyl-propan-1-ol] |
| 194 to 196 °C | COc1cc2ncc(NC3CCCCC3)nc2cc1N1CCOCC1 [Example 14, Cyclohexyl-(6-methoxy-7-morpholin-4-yl-quinoxalin-2-yl)-amine] |
| 184 to 186 °C | COc1cc2ncc(N[C@@H]3C[C@H]4CC[C@@H]3C4)nc2cc1OC [Example 22, (1R,2R,4S)-(+)-Bicyclo[2.2.1]hept-2-yl-(6,7-dimethoxyquinoxalin-2-yl)-amine] |

Target: Lck (Homo sapiens, UniProt P06239)
Settings: background, literature report; cited from earlier work

Chain of Lck (P06239 whole entry, species assumed): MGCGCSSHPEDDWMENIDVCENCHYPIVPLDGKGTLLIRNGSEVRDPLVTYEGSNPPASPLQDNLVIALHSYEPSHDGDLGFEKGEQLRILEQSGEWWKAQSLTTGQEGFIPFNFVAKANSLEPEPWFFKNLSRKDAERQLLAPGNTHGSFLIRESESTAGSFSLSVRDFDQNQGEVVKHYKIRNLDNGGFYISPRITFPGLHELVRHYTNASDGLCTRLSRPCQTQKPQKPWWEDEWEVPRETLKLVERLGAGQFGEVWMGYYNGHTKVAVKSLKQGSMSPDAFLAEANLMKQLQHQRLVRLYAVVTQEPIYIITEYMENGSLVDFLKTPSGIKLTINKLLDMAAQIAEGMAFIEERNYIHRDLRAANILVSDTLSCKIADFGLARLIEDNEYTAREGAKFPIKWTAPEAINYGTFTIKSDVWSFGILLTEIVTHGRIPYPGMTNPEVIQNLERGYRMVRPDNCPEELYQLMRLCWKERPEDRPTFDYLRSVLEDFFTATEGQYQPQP

| Compound | potency against Lck (in words) |
| --- | --- |
| Cc1ccc(-c2nn(C(C)(C)C)c3ncnc(N)c23)cc1 [PP1] | low nanomolar |

Target: Fyn (Homo sapiens, UniProt P06241)
Settings: background, literature report (Hanke et al.); cited from earlier work

Chain of Fyn (P06241 whole entry, species assumed): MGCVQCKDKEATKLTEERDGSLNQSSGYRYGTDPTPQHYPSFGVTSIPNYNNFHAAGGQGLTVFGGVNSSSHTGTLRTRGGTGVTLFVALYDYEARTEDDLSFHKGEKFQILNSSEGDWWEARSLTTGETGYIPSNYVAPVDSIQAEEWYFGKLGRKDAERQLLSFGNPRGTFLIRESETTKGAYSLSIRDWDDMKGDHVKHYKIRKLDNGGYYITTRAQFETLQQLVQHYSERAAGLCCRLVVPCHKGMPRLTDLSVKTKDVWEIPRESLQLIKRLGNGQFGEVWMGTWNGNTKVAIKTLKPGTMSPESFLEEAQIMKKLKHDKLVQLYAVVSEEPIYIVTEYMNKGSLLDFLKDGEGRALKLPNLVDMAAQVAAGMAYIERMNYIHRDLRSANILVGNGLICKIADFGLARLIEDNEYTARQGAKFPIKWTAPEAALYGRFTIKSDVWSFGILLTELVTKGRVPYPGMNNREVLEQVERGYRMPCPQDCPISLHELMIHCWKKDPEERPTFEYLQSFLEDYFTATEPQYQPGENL

| Compound | potency against Fyn (in words) |
| --- | --- |
| Cc1ccc(-c2nn(C(C)(C)C)c3ncnc(N)c23)cc1 [PP1] | low nanomolar |
